Assay results from ChEMBL document CHEMBL1201862, “PubChem BioAssay data set” (2004).
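All cell lines were grown in 96-well plates and treated with compound for 48 hours. The concentration for 50% growth inhibition is given as GI50.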 The source made the active and inactive calls. No stated cut-off is given here; in the data, active = GI50 up to about 1.1 µM and inactive = higher.

Tests used:
Assay in all cases: inhibition of tumour cell growth, NCI panel, 48 h
Malme-3M = test system: Malme-3M
MCF7 = test system: MCF7
SK-MEL-2 = test system: SK-MEL-2
UO-31 = test system: UO-31
HOP-92 = test system: HOP-92
NCI-H460 = test system: NCI-H460
HOP-62 = test system: HOP-62
MOLT-4 = test system: MOLT-4
IGROV-1 = test system: IGROV-1
SF-539 = test system: SF-539
ACHN = test system: ACHN
SN12C = test system: SN12C
RXF 393 = test system: RXF 393
NCI-H522 = test system: NCI-H522
NCI/ADR-RES = test system: NCI/ADR-RES
HCC 2998 = test system: HCC 2998
T47D = test system: T47D
NCI-H23 = test system: NCI-H23
SR = test system: SR
SK-MEL-28 = test system: SK-MEL-28

Measured: GI50

COc1cc(Nc2cc(Cl)cc(Cl)c2)nc(N)n1
inactive: Malme-3M 21.3 µM | MCF7 27.2 µM | SK-MEL-2 14.3 µM | UO-31 16.9 µM | HOP-92 16.4 µM | NCI-H460 16.6 µM | HOP-62 17.5 µM | MOLT-4 16.6 µM | IGROV-1 18.6 µM | SF-539 15.7 µM | ACHN 18.9 µM | SN12C 20.9 µM | RXF 393 14.5 µM | NCI-H522 20.4 µM | NCI/ADR-RES 20.5 µM | HCC 2998 16.6 µM | T47D 24.6 µM | NCI-H23 20.3 µM

CC1CC2=C(C1)C(C1(C)C(=O)CC3C(C1=O)C3(C)C)C(C)C2=O (centres undefined)
inactive: Malme-3M > 100 µM | MCF7 > 100 µM | SK-MEL-2 > 100 µM | UO-31 99.5 µM | HOP-92 > 100 µM | NCI-H460 > 100 µM | HOP-62 > 100 µM | MOLT-4 62.7 µM | SR > 100 µM | IGROV-1 > 100 µM | SF-539 > 100 µM | ACHN > 100 µM | SN12C > 100 µM | SK-MEL-28 > 100 µM | RXF 393 > 100 µM | NCI-H522 > 100 µM | HCC 2998 > 100 µM | T47D > 100 µM | NCI-H23 > 100 µM

CCOC(=O)/C(C(=O)Nc1ccc(Cl)cc1)=C(/N)N1CCOCC1
inactive: Malme-3M > 100 µM | MCF7 > 100 µM | SK-MEL-2 > 100 µM | NCI-H460 > 100 µM | HOP-62 > 100 µM | MOLT-4 > 100 µM | IGROV-1 > 100 µM | SF-539 > 100 µM | ACHN > 100 µM | SN12C > 100 µM | SK-MEL-28 > 100 µM | RXF 393 > 100 µM | NCI-H522 > 100 µM | NCI/ADR-RES > 100 µM | HCC 2998 > 100 µM | T47D > 100 µM | NCI-H23 > 100 µM

C=CCOC(=O)C1=C(CCC[C@@H](C)O[Si](C)(C)C(C)(C)C)N=C(N)N2[C@H](CCO)CC[C@@H]12
inactive: Malme-3M 18 µM | MCF7 7.69 µM | SK-MEL-2 15.3 µM | UO-31 16.1 µM | HOP-92 13.6 µM | NCI-H460 12.9 µM | HOP-62 14.1 µM | MOLT-4 10.5 µM | ACHN 17.7 µM | SN12C 16.5 µM | SK-MEL-28 17.5 µM | NCI-H522 12.7 µM | NCI/ADR-RES 19.7 µM | HCC 2998 18.7 µM | T47D 11.8 µM | NCI-H23 17.7 µM

CC1(C)CC(=O)c2c(nc3ccc4ccccc4c3c2-c2ccc(NC(=O)CCCC(=O)Nc3ccc(-c4c5c(nc6ccc7ccccc7c46)CC(C)(C)CC5=O)cc3)cc2)C1
inactive: MCF7 > 100 µM | SK-MEL-2 > 100 µM | UO-31 > 100 µM | HOP-92 > 100 µM | NCI-H460 > 100 µM | HOP-62 > 100 µM | MOLT-4 > 100 µM | SR > 100 µM | IGROV-1 > 100 µM | SF-539 > 100 µM | ACHN > 100 µM | SN12C > 100 µM | SK-MEL-28 > 100 µM | NCI/ADR-RES > 100 µM | T47D > 100 µM | NCI-H23 > 100 µM

Nc1nc(N)c2ncn(Cc3ccccc3CO)c2n1
inactive: Malme-3M > 100 µM | MCF7 > 100 µM | SK-MEL-2 > 100 µM | UO-31 > 100 µM | HOP-92 > 100 µM | NCI-H460 > 100 µM | HOP-62 > 100 µM | MOLT-4 > 100 µM | SR > 100 µM | IGROV-1 > 100 µM | SF-539 > 100 µM | ACHN > 100 µM | SN12C > 100 µM | SK-MEL-28 > 100 µM | NCI-H522 > 100 µM | NCI/ADR-RES > 100 µM | T47D > 100 µM | NCI-H23 > 100 µM

O=C1N/C(=N/N=C/C(O)C(O)C(O)CO)N/C1=C\c1ccco1 (centres undefined)
inactive: Malme-3M > 100 µM | MCF7 > 100 µM | HOP-92 > 100 µM | NCI-H460 > 100 µM | HOP-62 > 100 µM | MOLT-4 > 100 µM | IGROV-1 > 100 µM | SF-539 > 100 µM | ACHN > 100 µM | SN12C > 100 µM | SK-MEL-28 > 100 µM | RXF 393 > 100 µM | NCI-H522 > 100 µM | NCI/ADR-RES > 100 µM | HCC 2998 > 100 µM | T47D > 100 µM | NCI-H23 > 100 µM

CC(Cc1ccc(Cl)cc1Cl)NO (centres undefined)
inactive: Malme-3M > 100 µM | MCF7 > 100 µM | SK-MEL-2 > 100 µM | UO-31 > 100 µM | HOP-62 > 100 µM | MOLT-4 83.6 µM | SR > 100 µM | IGROV-1 > 100 µM | ACHN > 100 µM | SN12C 92.7 µM | SK-MEL-28 > 100 µM | RXF 393 > 100 µM | NCI-H522 66.5 µM | NCI/ADR-RES > 100 µM | T47D > 100 µM | NCI-H23 > 100 µM

COc1cc(Nc2cnc3cc(F)c(F)cc3n2)cc(OC)c1OC
inactive: Malme-3M > 100 µM | MCF7 > 100 µM | SK-MEL-2 84.3 µM | UO-31 > 100 µM | HOP-92 > 100 µM | NCI-H460 > 100 µM | HOP-62 91.8 µM | MOLT-4 > 100 µM | IGROV-1 > 100 µM | SF-539 > 100 µM | ACHN > 100 µM | SN12C > 100 µM | SK-MEL-28 > 100 µM | RXF 393 36.8 µM | NCI-H522 67.1 µM | NCI/ADR-RES > 100 µM | T47D > 100 µM | NCI-H23 73.6 µM

NCCCN(CCCCN(CCCN)C(=O)OCc1ccccc1)C(=O)OCc1ccccc1
inactive: MCF7 30.9 µM | SK-MEL-2 > 100 µM | UO-31 > 100 µM | HOP-92 29.9 µM | NCI-H460 88.9 µM | HOP-62 > 100 µM | MOLT-4 47.9 µM | IGROV-1 24.2 µM | SF-539 > 100 µM | ACHN > 100 µM | SN12C > 100 µM | SK-MEL-28 > 100 µM | RXF 393 98.6 µM | NCI-H522 28.5 µM | NCI/ADR-RES > 100 µM | HCC 2998 50 µM | T47D > 100 µM | NCI-H23 > 100 µM

COc1ccc2c(O)c1-c1c(OC)ccc(c1O)SSc1ccc(OC)c(c1O)-c1c(OC)ccc(c1O)SS2
inactive: Malme-3M 51.2 µM | MCF7 > 100 µM | SK-MEL-2 > 100 µM | UO-31 4.21 µM | HOP-92 23 µM | HOP-62 > 100 µM | MOLT-4 > 100 µM | SR 4.27 µM | IGROV-1 23 µM | SF-539 4.45 µM | ACHN 5.32 µM | SN12C > 100 µM | SK-MEL-28 34.4 µM | RXF 393 16.1 µM | NCI-H522 3.58 µM | T47D 20.8 µM
